According to patent US7579338B2, “Methods and compositions for treating atheroma, tumors and other neoplastic tissues” (Pharmacyclics, Inc., priority 1999, dated 2009):

How the values were obtained:
[1] = Oxidation of NADPH under approximate physiologic conditions (HPLC, NADP+ formation); assay type: biochemical; details: substrate NADPH, pH 7.5, Michaelis-Menton fit, triplicate; for Km: read-out: KM (dissociation or Michaelis constant), NADPH oxidation
Description: The following stock solutions were prepared: • Stock NADPH (Sigma N 7505) (prepared fresh daily): 12.2 mg/(10 mL. 833.4 mg/mmol)=1.46 mM • Stock GdTex: 5.76 mg/(10.0 mL water. 1148 mg/mmol)=501.7 μM • Stock 4× Buffer: 200 mM HEPES, pH 7.5; 400 mM NaCl; 0.4 mM EDTA • Stock LuTex: 5.02 mg/(10.0 mL water×1166 mg/mmol)=431 μM These were combined to form the reaction mixtures analyzed by HPLC, for example: • 250 μL 4× Buffer, 250 μL NADPH Stock, 427 μL Water, 72.7 μL GdTex Stock • 250 μL 4× Buffer, 250 μL NADPH Stock, 457.7 μL Water, 42.3 μL LuTex Stock The HPLC Method employed was as follows: 1. HPLC Operating Parameters: • System—HPLC system capable of delivering gradient mobile phase • Detector wavelength—260 nm • Injection Volume—20 μL • Pressure—ca: 2000 psi • Column Temperature—40° C. • Column—Nucleogel DEAE 60-7 125×4 mm 2. Mobile Phase: • Solution A—0.75 M KH2PO4, pH 3.8 • Solution B—0.016 M KH2PO4, pH 3.8
A reaction mixture was prepared containing NADPH, water and sufficient buffer to maintain the solution at pH 7.5. Texaphyrin, 0.1 molar equivalent to the NADPH, was added to this reaction mixture, vortexed briefly, and then the solution placed in the HPLC sampler for immediate injection. Further injections were made at appropriate time points, whereupon the integrated peak areas of both NADPH and NADP^+ were measured and used to calculate the extent of reaction at a given time point.
Provided that the amount of texaphyrin was sufficiently low relative to substrate, the percentage of NADP^+ generated by the reaction plotted against time initially gave a straight line. (For LuTex, it was necessary to drop the catalyst concentration to ca. 0.05 equivalent.) The slope of initial time points (eg., plotting as mM concentration vs time in hours) provided a rate which was used as a point in a saturation (Michaelis-Menton) plot. This process was repeated at various concentrations of NADPH. Data (in triplicate) was fitted to the Michaelis-Menton equation (initial reaction velocity/catalyst concentration)=(kcat×substrate concentration)/(KM+substrate concentration), where substrate is NADPH, catalyst is texaphyrin complex, kcat is the first-order rate constant for the catalyst, and KM is the dissociation (or Michaelis) constant for the catalyst/substrate complex. For GdTex, kcat=0.049±0.003 min^−1 and KM=1.69±0.17 mM. For LuTex, kcat=0.119±0.011 min^−1 and KM=0.56±0.20 mM.
1B. By following the procedure of Example 1A using a single concentration of NADPH and employing 0.1 equivalent of test compound, the results illustrated in FIG. 16 were obtained.

[2] = Oxidation of ascorbate under approximate physiologic conditions (UV-vis, 266 nm); assay type: biochemical
Description: • Stock ascorbic acid (Sigma A 5960) (prepared fresh): 8.82 mg/(25 mL 176.1 mg/mmol)=2.00 mM • Stock GdTex: 5.72 mg/(10.0 mL water. 1148 mg/mmol)=498 μM • Stock 4× Buffer: 200 mM HEPES, pH 7.5; 400 mM NaCl The stock solutions were prepared using ACS grade water (Aldrich 32,007-2). 4× buffer was prepared using NaCl 99.999% (Aldrich 20,443-9), HEPES (Gibco-BRL 11344-025), and sodium hydroxide 99.99% (Aldrich 30,657-6), and was treated with Chelex® 100 (BioRad 143-2832) prior to use to remove trace iron contaminants. These were combined to form the reaction mixture analyzed by UV-vis spectroscopy: 400 μL 4× Buffer, 200 μL Ascorbic Acid Stock, 979.9 μL Water, 20.1 μL GdTex Stock.
In brief, a reaction mixture was prepared containing ascorbate, buffer, and water. A lesser amount of texaphyrin catalyst, eg., 0.025 molar equivalent, was added to this reaction mixture, vortexed briefly, and placed in a quartz cuvette (0.2, 0.5, 1.0, 2.0, 5.0, or 10 mm path length as needed to give ca. 1.8 absorbance reading at 266 nm). The cuvette was placed in a UV-vis spectrophotometer and the absorbance was read every 60 seconds for ten minutes. The absorbance at 266 nm plotted against time initially gaive a straight line. The slope of initial time points (eg., plotting as M concentration vs time in minutes) provided a rate which was used as a point in a saturation (Michaelis-Menton) plot. This process was repeated at various concentrations of ascorbate. A background rate of ascorbate oxidation was also measured at each concentration of ascorbate using this procedure without GdTex catalyst. The resulting background rate of oxidation was subtracted from the rate of oxidation in the presence of catalyst.
2B. […] 2C. […] 2D. By following the procedure of Example 2A, using an initial ascorbate concentration of 1.23 mM and a texaphyrin concentration of 61.5 μM, the results summarized in below in Table 1 were obtained.

MES-SA cells = test: Response of MES-SA cells to ionizing radiation, microtiter plate format (MTT); assay type: cell-based, human
Description: The response of MES-SA cells to ionizing radiation was studied using the microtiter plate format to confirm radiation sensitization potential. This assay is used to assess rapidly the effects of irradiation under a variety of conditions.
10A. Materials and Methods. MES-SA cells were incubated at 37° C. and allowed to adhere to 96-well microtiter plates (1000 cells per well) overnight in 160 μL McCoys 5A containing 10% FBS (Gibco-BRL) and ca. 2% penicillin/streptomycin solution (Sigma). BSO or media (20 μL) was added, respectively to test and control wells, 24 h prior to irradiation. Metallotexaphyrin complex (up to 100 μM) was added to the test wells to give a final volume of 200 μL, 18-24 h prior to irradiation. Plates were irradiated using a 137Cs irradiator (Model 40 Gammacell, J. L. Shepherd & Assoc., San Fernando, Calif.) at a dose rate of 33.25 Rad/min. A lead brick (2″ diameter) was positioned to protect a column of wells (no. 11) from ionizing radiation. Plate absorbances were normalized to shielded wells to allow plate-to-plate comparison. […] Reversing the position of texaphyrin complex-containing wells had no effect on assay outcome. Medium was exchanged immediately after irradiation, and plates were incubated an additional 120 h prior to analysis for viability using the MTT assay (as described, e.g., in Example 5).

animal tumor models = details: reported in the literature; cited from earlier work

Compound | kcat (first-order rate constant for the catalyst), NADPH oxidation [1] [min⁻¹] | Km [1] [mM] | kcat (first-order rate constant for the catalyst), ascorbate oxidation ([2]; substrate ascorbate, pH 7.5, background subtracted) [min⁻¹] | Km ([2]; substrate ascorbate, pH 7.5, background subtracted, read-out: KM (dissociation or Michaelis constant), ascorbate oxidation) [mM] | radiation sensitization (MES-SA cells; 100 μM GdTex, no BSO (FIG. 17A)) | effect on apparent viability after irradiation with BSO (MES-SA cells; all cells pre-incubated with 100 μM BSO (FIG. 17B)) | effect on apparent viability after irradiation (MES-SA cells; up to 50 μM GdTex for 24 h prior to irradiation, no BSO, adjusted for GdTex alone (FIG. 17A)) | radiation sensitization in animal tumor models (animal tumor models) | ascorbate oxidation (in words) ([2]; procedure of Example 2A, compared with motexafin gadolinium) | radiation sensitization, texaphyrin substituted for GdTex (MES-SA cells; corresponding experiments, Example 10B)
CC(=O)[O-].CC(=O)[O-].CCc1c(CC)c2cc3nc(cnc4cc(OCCOCCOCCOC)c(OCCOCCOCCOC)cc4ncc4nc(cc1[n-]2)C(CCCO)=C4C)C(C)=C3CCCO.O.[Gd+3] [GdTex, motexafin gadolinium] | 0.049 ± 0.003 | 1.69 ± 0.17 | 0.35 | 1.06 | Radiation sensitization became more significant | greater GdTex-dependent decrease in apparent viability | small effect on apparent viability | enhance the efficacy of radiation |  | 
CC(=O)[O-].CC(=O)[O-].CCc1c(CC)c2cc3nc(cnc4cc(OCCOCCOCCOC)c(OCCOCCOCCOC)cc4ncc4nc(cc1[n-]2)C(CCCO)=C4C)C(C)=C3CCCO.O.[Lu+3] [LuTex, motexafin lutetium] | 0.119 ± 0.011 | 0.56 ± 0.2 |  |  |  |  |  | did not possess similar radiation sensitization properties | to a lesser extent than in the presence of motexafin gadolinium | sensitization was not obtained
